Columns and labels:
[1] = target: T1, HiBit-BRG1 fusion protein (Homo sapiens, UniProt P51532); test: HiBiT-BRG1 cell-based degradation assay (Nano-Glo HiBiT Lytic Detection, 24 h); conditions: HeLa cell line expressing HiBit-BRG1 and LgBit; for Dmax: read-out: BRG1 HiBit Degradation Maximum (%); for DC50: read-out: BRMG1 HiBit Degradation IC50
T1 construct: expressed in transfected cells
Procedure, shortened: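 Luminescence from Nano-Glo HiBiT lytic detection, read after 24 h compound exposure, scored degradation in a stable HeLa HiBiT-BRG1/LgBit line seeded at 5000 cells/well. DMSO wells defined 0% and 2 μM known BRM/BRG1 degrader wells defined full degradation.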

HiBit-BRM fusion protein = target: T2, HiBit-BRM fusion protein (Homo sapiens, UniProt P51531); test: HiBiT-BRM cell-based degradation assay (Nano-Glo HiBiT Lytic Detection, 24 h); conditions: HeLa cell line expressing HiBiT-BRM; for DC50: read-out: BRM HiBit Degradation IC50
T2 construct: expressed in transfected cells
T2 sequence (P51531 whole entry, the tested form may be a part): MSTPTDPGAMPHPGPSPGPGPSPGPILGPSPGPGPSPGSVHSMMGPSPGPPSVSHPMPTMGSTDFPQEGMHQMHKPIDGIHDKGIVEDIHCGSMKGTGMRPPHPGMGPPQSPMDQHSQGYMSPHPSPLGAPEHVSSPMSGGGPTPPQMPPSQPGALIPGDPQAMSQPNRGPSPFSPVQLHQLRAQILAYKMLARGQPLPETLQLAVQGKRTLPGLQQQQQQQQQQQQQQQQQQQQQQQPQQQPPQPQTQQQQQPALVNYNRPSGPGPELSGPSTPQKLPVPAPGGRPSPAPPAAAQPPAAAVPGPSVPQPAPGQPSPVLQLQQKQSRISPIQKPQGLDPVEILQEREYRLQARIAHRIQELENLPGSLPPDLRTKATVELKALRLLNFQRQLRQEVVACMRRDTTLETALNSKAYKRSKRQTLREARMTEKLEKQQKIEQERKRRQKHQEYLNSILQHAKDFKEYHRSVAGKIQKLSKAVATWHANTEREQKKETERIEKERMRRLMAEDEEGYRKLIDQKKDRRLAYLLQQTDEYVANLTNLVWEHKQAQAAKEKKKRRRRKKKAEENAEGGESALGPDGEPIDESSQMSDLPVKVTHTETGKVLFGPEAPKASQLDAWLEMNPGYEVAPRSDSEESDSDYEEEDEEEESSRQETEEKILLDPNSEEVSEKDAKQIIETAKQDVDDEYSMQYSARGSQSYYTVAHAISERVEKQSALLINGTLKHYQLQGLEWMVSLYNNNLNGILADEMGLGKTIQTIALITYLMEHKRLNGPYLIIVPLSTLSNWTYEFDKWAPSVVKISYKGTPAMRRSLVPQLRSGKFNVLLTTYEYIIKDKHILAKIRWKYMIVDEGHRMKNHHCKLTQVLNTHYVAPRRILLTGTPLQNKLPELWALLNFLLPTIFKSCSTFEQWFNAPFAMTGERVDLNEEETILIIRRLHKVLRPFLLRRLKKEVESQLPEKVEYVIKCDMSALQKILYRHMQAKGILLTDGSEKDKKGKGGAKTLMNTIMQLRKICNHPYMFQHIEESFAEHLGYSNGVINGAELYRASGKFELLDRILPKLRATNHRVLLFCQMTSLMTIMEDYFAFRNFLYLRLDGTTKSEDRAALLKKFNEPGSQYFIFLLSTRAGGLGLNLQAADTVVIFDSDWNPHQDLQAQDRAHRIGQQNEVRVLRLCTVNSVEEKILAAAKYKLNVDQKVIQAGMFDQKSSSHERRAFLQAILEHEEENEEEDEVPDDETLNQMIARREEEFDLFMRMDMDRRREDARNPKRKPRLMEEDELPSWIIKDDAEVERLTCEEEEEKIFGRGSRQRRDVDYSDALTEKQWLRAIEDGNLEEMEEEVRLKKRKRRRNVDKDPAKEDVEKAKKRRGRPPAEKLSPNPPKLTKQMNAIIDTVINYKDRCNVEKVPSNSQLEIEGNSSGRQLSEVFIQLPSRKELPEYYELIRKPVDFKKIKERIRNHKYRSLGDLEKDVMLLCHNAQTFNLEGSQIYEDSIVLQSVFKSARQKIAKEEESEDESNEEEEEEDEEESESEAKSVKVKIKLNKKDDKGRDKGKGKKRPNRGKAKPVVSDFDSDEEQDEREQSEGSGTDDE
Procedure, shortened: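 HeLa cells stably expressing HiBiT-BRM were dosed with compounds (10-point 3-fold dilutions, 30 μM final top dose, duplicate) for 24 h. HiBiT signal was read by lytic LgBiT complementation luminescence. Percent degradation was normalised to DMSO (high control) and 2 μM of a reference BRM/BRG1 degrader (low control).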

T1 sequence (P51532 whole entry, the tested form may be a part): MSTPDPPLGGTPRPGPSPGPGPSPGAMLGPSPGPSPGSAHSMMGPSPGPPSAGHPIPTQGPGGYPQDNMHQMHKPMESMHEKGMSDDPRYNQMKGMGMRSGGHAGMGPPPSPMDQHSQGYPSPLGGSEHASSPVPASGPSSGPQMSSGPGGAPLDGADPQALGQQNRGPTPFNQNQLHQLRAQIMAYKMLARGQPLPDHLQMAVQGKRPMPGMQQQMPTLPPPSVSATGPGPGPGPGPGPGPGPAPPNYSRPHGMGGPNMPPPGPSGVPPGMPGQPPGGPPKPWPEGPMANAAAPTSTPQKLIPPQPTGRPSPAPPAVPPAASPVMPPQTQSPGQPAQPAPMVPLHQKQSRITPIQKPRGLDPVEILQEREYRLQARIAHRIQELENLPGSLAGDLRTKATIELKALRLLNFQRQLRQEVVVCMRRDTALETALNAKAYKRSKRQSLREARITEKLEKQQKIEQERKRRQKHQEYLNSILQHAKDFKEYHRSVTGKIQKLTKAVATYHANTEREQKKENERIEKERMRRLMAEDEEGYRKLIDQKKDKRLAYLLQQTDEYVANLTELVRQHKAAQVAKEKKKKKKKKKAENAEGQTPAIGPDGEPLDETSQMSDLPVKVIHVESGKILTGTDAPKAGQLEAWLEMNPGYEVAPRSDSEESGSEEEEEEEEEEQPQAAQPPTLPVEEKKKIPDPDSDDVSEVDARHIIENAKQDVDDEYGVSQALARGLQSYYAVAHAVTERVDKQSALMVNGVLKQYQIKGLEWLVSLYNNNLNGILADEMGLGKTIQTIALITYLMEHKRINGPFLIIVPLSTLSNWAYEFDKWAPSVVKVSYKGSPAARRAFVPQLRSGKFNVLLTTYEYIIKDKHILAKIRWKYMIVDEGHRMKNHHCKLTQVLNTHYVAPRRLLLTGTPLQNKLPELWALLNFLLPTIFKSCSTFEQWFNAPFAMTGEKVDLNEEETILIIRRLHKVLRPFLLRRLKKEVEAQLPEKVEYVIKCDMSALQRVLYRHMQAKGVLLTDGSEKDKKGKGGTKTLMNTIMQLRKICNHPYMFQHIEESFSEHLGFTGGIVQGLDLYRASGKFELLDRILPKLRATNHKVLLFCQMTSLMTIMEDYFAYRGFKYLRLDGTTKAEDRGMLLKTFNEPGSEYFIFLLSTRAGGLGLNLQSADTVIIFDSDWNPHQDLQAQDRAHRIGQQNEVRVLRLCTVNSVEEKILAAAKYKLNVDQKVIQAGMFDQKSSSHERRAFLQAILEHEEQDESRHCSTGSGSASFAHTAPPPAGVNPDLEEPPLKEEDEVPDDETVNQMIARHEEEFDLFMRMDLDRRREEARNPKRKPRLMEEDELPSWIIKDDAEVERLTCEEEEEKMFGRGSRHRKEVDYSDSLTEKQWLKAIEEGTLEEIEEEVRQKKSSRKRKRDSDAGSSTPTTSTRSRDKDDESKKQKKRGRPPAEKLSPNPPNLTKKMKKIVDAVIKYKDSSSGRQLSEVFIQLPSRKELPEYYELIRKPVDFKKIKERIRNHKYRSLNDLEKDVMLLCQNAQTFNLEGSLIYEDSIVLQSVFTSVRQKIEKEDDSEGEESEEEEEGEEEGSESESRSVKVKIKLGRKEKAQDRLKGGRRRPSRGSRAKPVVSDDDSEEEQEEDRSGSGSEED

Compound	Dmax [1]	DC50 [1]	DC50 (HiBit-BRM fusion protein)	BRM HiBit Degradation Maximum (%) (HiBit-BRM fusion protein)
Cc1ncsc1-c1ccc([C@H](C)NC(=O)[C@@H]2C[C@@H](O)CN2C(=O)[C@@H](c2onc(OCCN3CC(c4cc5cc(-c6ccccc6O)nnc5[nH]4)C3)c2Cl)C(C)C)cc1 (racemic) [Compound 266, (2S,4R)-1-((R)-2-(4-chloro-3-(2-(3-(3-(2-hydroxyphenyl)-7H-pyrrolo[2,3-c]pyridazin-6-yl)azetidin-1-yl)ethoxy)isoxazol-5-yl)-3-methylbutanoyl)-4-hydroxy-N-((S)-1-(4-(4-methylthiazol-5-yl)phenyl)ethyl)pyrrolidine-2-carboxamide]	> 75%	> 100 nM	> 10 nM	A (“A” indicates maximum degradation ≥ 75%)
Cc1ncsc1-c1ccc([C@H](C)NC(=O)[C@@H]2C[C@@H](O)CN2C(=O)[C@@H](c2cc(N3CCN(CCC(=O)N4CC(c5cc6cc(-c7ccccc7O)nnc6[nH]5)C4)CC3)no2)C(C)C)cc1 (racemic) [Compound 268, (2S,4R)-4-hydroxy-1-[(2R)-2-{3-[4-(3-{3-[3-(2-hydroxyphenyl)-7H-pyrrolo[2,3-c]pyridazin-6-yl]azetidin-1-yl}-3-oxopropyl)piperazin-1-yl]-1,2-oxazol-5-yl}-3-methylbutanoyl]-N-[(1S)-1-[4-(4-methyl-1,3-thiazol-5-yl)phenyl]ethyl]pyrrolidine-2-carboxamide]	–	> 1000 nM	> 100 nM	A (“A” indicates maximum degradation ≥ 75%)
Cc1ncsc1-c1ccc([C@H](C)NC(=O)[C@@H]2C[C@@H](O)CN2C(=O)[C@@H](c2cc(OCCN3CCC(c4[nH]c5nnc(-c6ccccc6O)cc5c4C)CC3)no2)C(C)C)cc1 (racemic) [Compound 270, (2S,4R)-4-hydroxy-1-[(2R)-2-[3-(2-{4-[3-(2-hydroxyphenyl)-5-methyl-7H-pyrrolo[2,3-c]pyridazin-6-yl]piperidin-1-yl}ethoxy)-1,2-oxazol-5-yl]-3-methylbutanoyl]-N-[(1S)-1-[4-(4-methyl-1,3-thiazol-5-yl)phenyl]ethyl]pyrrolidine-2-carboxamide]	> 75%	> 10 nM	< 10 nM	A (“A” indicates maximum degradation ≥ 75%)
Cc1ncsc1-c1ccc([C@H](C)NC(=O)[C@@H]2C[C@@H](O)CN2C(=O)[C@@H](c2cc(OCCN3CC(C)(c4cc5cc(-c6ccccc6O)nnc5[nH]4)C3)no2)C(C)C)cc1 (racemic) [Compound 275, (2S,4R)-4-hydroxy-1-((R)-2-(3-(2-(3-(3-(2-hydroxyphenyl)-7H-pyrrolo[2,3-c]pyridazin-6-yl)-3-methylazetidin-1-yl)ethoxy)isoxazol-5-yl)-3-methylbutanoyl)-N-((S)-1-(4-(4-methylthiazol-5-yl)phenyl)ethyl)pyrrolidine-2-carboxamide]	< 50%	–	> 10 nM	A (“A” indicates maximum degradation ≥ 75%)
Cc1ncsc1-c1ccc([C@H](C)NC(=O)[C@@H]2C[C@@H](O)CN2C(=O)[C@@H](c2cc(OCCN3CCC(C)(c4cc5cc(-c6ccccc6O)nnc5[nH]4)CC3)no2)C(C)C)cc1 (racemic) [Compound 276, (2S,4R)-4-hydroxy-1-((R)-2-(3-(2-(4-(3-(2-hydroxyphenyl)-7H-pyrrolo[2,3-c]pyridazin-6-yl)-4-methylpiperidin-1-yl)ethoxy)isoxazol-5-yl)-3-methylbutanoyl)-N-((S)-1-(4-(4-methylthiazol-5-yl)phenyl)ethyl)pyrrolidine-2-carboxamide]	> 50%	> 1000 nM	> 10 nM	A (“A” indicates maximum degradation ≥ 75%)
Cc1ncsc1-c1ccc([C@H](C)NC(=O)[C@@H]2C[C@@H](O)CN2C(=O)[C@@H](c2cc(OCCN3CCC(O)(c4cc5cc(-c6ccccc6O)nnc5[nH]4)CC3)no2)C(C)C)cc1 (racemic) [Compound 277, (2S,4R)-4-hydroxy-1-((R)-2-(3-(2-(4-hydroxy-4-(3-(2-hydroxyphenyl)-7H-pyrrolo[2,3-c]pyridazin-6-yl)piperidin-1-yl)ethoxy)isoxazol-5-yl)-3-methylbutanoyl)-N-((S)-1-(4-(4-methylthiazol-5-yl)phenyl)ethyl)pyrrolidine-2-carboxamide]	< 50%	–	> 100 nM	A (“A” indicates maximum degradation ≥ 75%)
Cc1ncsc1-c1ccc([C@H](C)NC(=O)[C@@H]2C[C@@H](O)CN2C(=O)[C@@H](c2cc(OCCN3CCC[C@@H](c4cc5cc(-c6ccccc6O)nnc5[nH]4)C3)no2)C(C)C)cc1 (racemic) [Compound 279, (2S,4R)-4-hydroxy-1-((R)-2-(3-(2-((R)-3-(3-(2-hydroxyphenyl)-7H-pyrrolo[2,3-c]pyridazin-6-yl)piperidin-1-yl)ethoxy)isoxazol-5-yl)-3-methylbutanoyl)-N-((S)-1-(4-(4-methylthiazol-5-yl)phenyl)ethyl)pyrrolidine-2-carboxamide]	< 50%	–	> 10 nM	A (“A” indicates maximum degradation ≥ 75%)

Continued, in another order:

Dmax [1]	DC50 [1]	DC50 (HiBit-BRM fusion protein)	Compound	BRM HiBit Degradation Maximum (%) (HiBit-BRM fusion protein)
< 50%	–	> 100 nM	Cc1ncsc1-c1ccc([C@H](C)NC(=O)[C@@H]2C[C@@H](O)CN2C(=O)[C@@H](c2cc(N3CCN(C(=O)C(=O)N4CC(c5c[nH]c6nnc(-c7ccccc7O)cc56)C4)CC3)no2)C(C)C)cc1 (racemic) [Compound 267, (2S,4R)-4-hydroxy-1-((R)-2-(3-(4-(2-(3-(3-(2-hydroxyphenyl)-7H-pyrrolo[2,3-c]pyridazin-5-yl)azetidin-1-yl)-2-oxoacetyl)piperazin-1-yl)isoxazol-5-yl)-3-methylbutanoyl)-N-((S)-1-(4-(4-methylthiazol-5-yl)phenyl)ethyl)pyrrolidine-2-carboxamide]	A (“A” indicates maximum degradation ≥ 75%)
> 75%	> 100 nM	> 10 nM	Cc1ncsc1-c1ccc([C@H](C)NC(=O)[C@@H]2C[C@@H](O)CN2C(=O)[C@@H](c2cc(N3CCN(C(=O)CN4CC(c5cc6cc(-c7ccccc7O)nnc6[nH]5)C4)CC3)no2)C(C)C)cc1 (racemic) [Compound 269, (2S,4R)-4-hydroxy-1-((R)-2-(3-(4-(2-(3-(3-(2-hydroxyphenyl)-7H-pyrrolo[2,3-c]pyridazin-6-yl)azetidin-1-yl)acetyl)piperazin-1-yl)isoxazol-5-yl)-3-methylbutanoyl)-N-((S)-1-(4-(4-methylthiazol-5-yl)phenyl)ethyl)pyrrolidine-2-carboxamide]	A (“A” indicates maximum degradation ≥ 75%)
> 75%	> 10 nM	< 10 nM	Cc1ncsc1-c1ccc([C@H](C)NC(=O)[C@@H]2C[C@@H](O)CN2C(=O)[C@@H](c2cc(OCCN3CCC(N4CC(c5[nH]c6nnc(-c7ccccc7O)cc6c5C)C4)CC3)no2)C(C)C)cc1 (racemic) [Compound 271, (2S,4R)-4-hydroxy-1-((R)-2-(3-(2-(4-(3-(3-(2-hydroxyphenyl)-5-methyl-7H-pyrrolo[2,3-c]pyridazin-6-yl)azetidin-1-yl)piperidin-1-yl)ethoxy)isoxazol-5-yl)-3-methylbutanoyl)-N-((S)-1-(4-(4-methylthiazol-5-yl)phenyl)ethyl)pyrrolidine-2-carboxamide]	A (“A” indicates maximum degradation ≥ 75%)
> 75%	> 100 nM	> 10 nM	Cc1ncsc1-c1ccc([C@H](C)NC(=O)[C@@H]2C[C@@H](O)CN2C(=O)C(c2cc(N3CCC(C(=O)N4CC(c5cc6cc(-c7ccccc7O)nnc6[nH]5)C4)CC3)no2)C(C)C)cc1 (mixture of isomers) [Compound 274, (2S,4R)-4-hydroxy-1-((S)-2-(3-(4-(3-(3-(2-hydroxyphenyl)-7H-pyrrolo[2,3-c]pyridazin-6-yl)azetidine-1-carbonyl)piperidin-1-yl)isoxazol-5-yl)-3-methylbutanoyl)-N-((S)-1-(4-(4-methylthiazol-5-yl)phenyl)ethyl)pyrrolidine-2-carboxamide]	A (“A” indicates maximum degradation ≥ 75%)
> 50%	> 10 nM	> 10 nM	Cc1ncsc1-c1ccc([C@H](C)NC(=O)[C@@H]2C[C@@H](O)CN2C(=O)[C@@H](c2cc(OCCN3CCC[C@H](c4cc5cc(-c6ccccc6O)nnc5[nH]4)C3)no2)C(C)C)cc1 (racemic) [Compound 278, (2S,4R)-4-hydroxy-1-((R)-2-(3-(2-((S)-3-(3-(2-hydroxyphenyl)-7H-pyrrolo[2,3-c]pyridazin-6-yl)piperidin-1-yl)ethoxy)isoxazol-5-yl)-3-methylbutanoyl)-N-((S)-1-(4-(4-methylthiazol-5-yl)phenyl)ethyl)pyrrolidine-2-carboxamide]	A (“A” indicates maximum degradation ≥ 75%)
< 50%	–	> 10 nM	Cc1ncsc1-c1ccc([C@H](C)NC(=O)[C@@H]2C[C@@H](O)CN2C(=O)[C@@H](c2cc(OCCN3CC[C@H](c4cc5cc(-c6ccccc6O)nnc5[nH]4)C3)no2)C(C)C)cc1 (racemic) [Compound 280, (2S,4R)-4-hydroxy-1-((R)-2-(3-(2-((S)-3-(3-(2-hydroxyphenyl)-7H-pyrrolo[2,3-c]pyridazin-6-yl)pyrrolidin-1-yl)ethoxy)isoxazol-5-yl)-3-methylbutanoyl)-N-((S)-1-(4-(4-methylthiazol-5-yl)phenyl)ethyl)pyrrolidine-2-carboxamide]	A (“A” indicates maximum degradation ≥ 75%)
